Here are results for four molecules from patent publication US8916572B2, “Bis-quinazoline derivatives as inhibitors for epidermal growth factor receptor (EGFR) tyrosine kinase” (Tetranov International, Inc., priority 2012, dated 2014).

Some results are limits rather than exact numbers.

This assay concerns human lung adenocarcinoma epithelial cell line A549. Briefly: Growth inhibition in vitro of human tumor cell line A549 (MTT assay). The class given is cell-based. Particulars: for IC50: Homo sapiens, A549 cells, MTT assay, 24 hours incubation, read-out: IC 50, tumor cell growth inhibition in human tumor cell line A549. The protocol: Growth Inhibition In Vitro of Human Tumor Cell Line A549 by Examples:
Human lung adenocarcinoma epithelial cell line A549 was obtained from American Type Culture Collection (ATCC) and maintained in Dulbecco modified eagle medium supplemented with 10% fetal bovine serum. MTT assay was performed using the MTT cell proliferation assay kit (ATCC). Briefly, 3×10^3 A549 cells/well were plated in 96 well plates overnight and then incubated with different concentrations of tested compounds or vehicle controls for 24 hours. Ten μl of MTT reagent was added to each well for 120 min. The formazan crystal was dissolved with MTT detergent, and the OD value was measured at 570 nm using a SpectraMax M3 microplate reader (Molecular Devices). Data were normalized to vehicle controls and processed using GraphPad Prism 5.00.
On the technique in general: Formazan colour is commonly taken as a measure of viable cells.

For the molecule `C#Cc1cccc(Nc2ncnc3cc(OCCOC)c(OCCOC)cc23)c1` [Erlotinib, reference compound], the IC50 came out at 9.9 µM.

`C#Cc1cccc(Nc2ncnc3cc(OCCOCCOCCOCCOc4cc5ncnc(Nc6cccc(C#C)c6)c5cc4OCCOC)c(OCCOC)cc23)c1` [dimer 1, 7,7′-((((oxybis(ethane-2,1-diyl))bis(oxy))bis(ethane-2,1-diyl))bis(oxy))bis(N-(3-ethynylphenyl)-6-(2-methoxyethoxy)quinazolin-4-amine)]: the IC50 is greater than 80 µM.

Turning to `C#Cc1cccc(Nc2ncnc3cc(OCCOC)c(OCCOCCOCCOCCOc4cc5c(Nc6cccc(C#C)c6)ncnc5cc4OCCOC)cc23)c1` [dimer 2, 6,6′-((((oxybis(ethane-2,1-diyl))bis(oxy))bis(ethane-2,1-diyl))bis(oxy))bis(N-(3-ethynylphenyl)-7-(2-methoxyethoxy)quinazolin-4-amine)], the IC50 came out at 5.1 µM. The “in vitro activity compared to Erlotinib in cell line A549” value (human lung adenocarcinoma epithelial cell line A549, comparison in words) is “higher activity than Erlotinib”. As to `C#Cc1cccc(Nc2ncnc3cc(OCCOCCOCCOCCOc4cc5c(Nc6cccc(C#C)c6)ncnc5cc4OCCOC)c(OCCOC)cc23)c1` [dimer 3, N-(3-ethynylphenyl)-6-(2-(2-(2-(2-((4-((3-ethynylphenyl)amino)-6-(2-methoxyethoxy)quinazolin-7-yl)oxy)ethoxy)ethoxy)ethoxy)ethoxy)-7-(2-methoxyethoxy)quinazolin-4-amine], the IC50 is greater than 80 µM.
